In patent US20250136596A1, “MEMBRANE-ASSOCIATED TYROSINE- AND THREONINE-SPECIFIC CDC2-INHIBITORY KINASE (PKMYT1) INHIBITORS AND USES THEREOF” (Insilico Medicine IP Limited, priority 2022, published 2025):
pIC50: −log10 of the molar value.

Biological target: PKMYT1 (Homo sapiens (Human), UniProt Q99640)
Assay: PKMYT1 HTRF Assay
Type: binding
Conditions: Tracer 178, GST-Tb; compound 10 μM to 0.5 nM; read-out: MYT1 HTRF IC50
Experimental: Example A: PKMYT1 HTRF Assay
Compound serial dilution is performed by Echo, and the final concentrations vary from 10 μM to 0.5 nM. This was filled by the addition of 5 μL/well of Enzyme solution to the assay plate containing the compound. The plate was centrifuged at 1000 rpm for 1 minute, and incubate 15 minutes at 25 ? . Then 5 μL/well of tracer solution (Tracer 178) was added to initiate the reaction, and incubate for 60 minutes at 25° C. Next 5 μL GST-Tb was added into the assay plate, the plate was centrifuged at 1000 rpm for 1 minute, and incubate for 15 minutes at 25 ? . The assay plate was read on Envision.

PKMYT1, sequence (Q99640 whole entry): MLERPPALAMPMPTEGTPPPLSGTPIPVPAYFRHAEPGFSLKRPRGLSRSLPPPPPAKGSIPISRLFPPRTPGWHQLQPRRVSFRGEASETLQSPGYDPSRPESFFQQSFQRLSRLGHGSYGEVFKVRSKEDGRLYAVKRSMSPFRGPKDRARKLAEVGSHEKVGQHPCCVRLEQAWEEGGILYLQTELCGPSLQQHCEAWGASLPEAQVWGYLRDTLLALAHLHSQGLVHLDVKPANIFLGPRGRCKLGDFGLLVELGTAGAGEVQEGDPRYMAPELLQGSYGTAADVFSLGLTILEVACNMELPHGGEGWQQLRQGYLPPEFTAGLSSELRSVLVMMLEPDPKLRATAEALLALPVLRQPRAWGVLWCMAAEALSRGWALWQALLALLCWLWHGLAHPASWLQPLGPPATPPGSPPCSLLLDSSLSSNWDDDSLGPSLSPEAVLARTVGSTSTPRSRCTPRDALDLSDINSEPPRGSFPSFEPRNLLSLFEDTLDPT

Row | SMILES | pIC50
1 | Cc1ccc(O)c(C)c1-c1cnc2[nH]c(-c3cnc(N4CC(C)(O)C4)nc3)cc2c1Cl [Example 25, (S)-1-(5-(4-chloro-5-(3-hydroxy-2,6-dimethylphenyl)-1H-pyrrolo[2,3-b]pyridin-2-yl)pyrimidin-2-yl)-3-methylazetidin-3-ol] | > 8.00
2 | Cc1ncc(-c2cc3c(C)c(-c4c(C)ccc(O)c4C)cnc3[nH]2)cn1 [Example 26, (R)-2,4-dimethyl-3-(4-methyl-2-(2-methylpyrimidin-5-yl)-1H-pyrrolo[2,3-b]pyridin-5-yl)phenol] | > 8.00
3 | Cc1ncc(-c2[nH]c3ncc(-c4c(C)ccc(O)c4C)cc3c2C#N)cn1 [Example 27, 5-(3-hydroxy-2,6-dimethylphenyl)-2-(2-methylpyrimidin-5-yl)-1H-pyrrolo[2,3-b]pyridine-3-carbonitrile] | 7.30 to 8.00
4 | Cc1cnc(-c2cc3cc(-c4c(C)ccc(O)c4C)cnc3[nH]2)cn1 [Example 29, 2,4-dimethyl-3-(2-(5-methylpyrazin-2-yl)-1H-pyrrolo[2,3-b]pyridin-5-yl)phenol] | 6.30 to 7.30
5 | Cc1ncc(-c2cc3c(N)c(-c4c(C)ccc(O)c4C)cnc3[nH]2)cn1 [Example 30, 3-(4-amino-2-(2-methylpyrimidin-5-yl)-1H-pyrrolo[2,3-b]pyridin-5-yl)-2,4-dimethylphenol] | 6.30 to 7.30
6 | Cc1ncc(-c2cc3c(C(F)(F)F)c(-c4c(C)ccc(O)c4C)cnc3[nH]2)cn1 [Example 31, (R)-2,4-dimethyl-3-(2-(2-methylpyrimidin-5-yl)-4-(trifluoromethyl)-1H-pyrrolo[2,3-b]pyridin-5-yl)phenol] | > 8.00
7 | Cc1ncc(-c2cc3c(C(N)=O)c(-c4c(C)ccc(O)c4C)cnc3[nH]2)cn1 [Example 34, 5-(3-hydroxy-2,6-dimethylphenyl)-2-(2-methylpyrimidin-5-yl)-1H-pyrrolo[2,3-b]pyridine-4-carboxamide] | 6.30 to 7.30
8 | Cc1ccc(O)c(C)c1-c1cnc2[nH]c(C3=CCCOC3)cc2c1C#N [Example 36, 2-(5,6-dihydro-2H-pyran-3-yl)-5-(3-hydroxy-2,6-dimethylphenyl)-1H-pyrrolo[2,3-b]pyridine-4-carbonitrile] | 7.30 to 8.00
9 | Cc1ccc(O)c(C)c1-c1cnc2[nH]c(-c3cnc(N4CCC(F)(F)C4)nc3)cc2c1C#N [Example 37, 2-(2-(3,3-difluoropyrrolidin-1-yl)pyrimidin-5-yl)-5-(3-hydroxy-2,6-dimethylphenyl)-1H-pyrrolo[2,3-b]pyridine-4-carbonitrile] | > 8.00
10 | Cc1ccc(O)c(C)c1-c1cnc2[nH]c(-c3cnc(N4CCC(F)(F)C4)nc3)c(Cl)c2c1C#N [Example 38, (R)-3-chloro-2-(2-(3,3-difluoropyrrolidin-1-yl)pyrimidin-5-yl)-5-(3-hydroxy-2,6-dimethylphenyl)-1H-pyrrolo[2,3-b]pyridine-4-carbonitrile] | > 8.00
11 | Cc1ccc(O)c(C)c1-c1cnc2[nH]c(-c3cnc(N)nc3)cc2c1C#N [Example 39, (R)-2-(2-aminopyrimidin-5-yl)-5-(3-hydroxy-2,6-dimethylphenyl)-1H-pyrrolo[2,3-b]pyridine-4-carbonitrile] | > 8.00
12 | Cc1ccc(O)c(C)c1-c1cnc2[nH]c(-c3cnc(N)nc3)c(Cl)c2c1C#N [Example 40, (R)-2-(2-aminopyrimidin-5-yl)-3-chloro-5-(3-hydroxy-2,6-dimethylphenyl)-1H-pyrrolo[2,3-b]pyridine-4-carbonitrile] | > 8.00
13 | Cc1ccc(O)c(C)c1-c1cnc2[nH]c(-c3cnc(N4CC5CC4CO5)nc3)cc2c1C#N [Example 42, (R)-2-(2-((1S,4S)-2-oxa-5-azabicyclo[2.2.1]heptan-5-yl)pyrimidin-5-yl)-5-(3-hydroxy-2,6-dimethylphenyl)-1H-pyrrolo[2,3-b]pyridine-4-carbonitrile] | > 8.00
14 | Cc1ccc(O)c(C)c1-c1cnc2[nH]c(-c3cnc(N4CC5CC4CO5)nc3)c(Cl)c2c1C#N (centres unmarked) [Example 44, 2-(2-(2-oxa-5-azabicyclo[2.2.1]heptan-5-yl)pyrimidin-5-yl)-3-chloro-5-(3-hydroxy-2,6-dimethylphenyl)-1H-pyrrolo[2,3-b]pyridine-4-carbonitrile] | > 8.00
15 | Cc1ccc(O)c(C)c1-c1cnc2[nH]c(-c3cnc(N4CC(O)C4)nc3)cc2c1C#N [Example 45, (R)-5-(3-hydroxy-2,6-dimethylphenyl)-2-(2-(3-hydroxyazetidin-1-yl)pyrimidin-5-yl)-1H-pyrrolo[2,3-b]pyridine-4-carbonitrile] | > 8.00
16 | Cc1ccc(O)c(C)c1-c1cnc2[nH]c(-c3cnc(N4CC(O)C4)nc3)c(Cl)c2c1C#N [Example 46, (R)-3-chloro-5-(3-hydroxy-2,6-dimethylphenyl)-2-(2-(3-hydroxyazetidin-1-yl)pyrimidin-5-y1)-1H-pyrrolo[2,3-b]pyridine-4-carbonitrile] | > 8.00

Row | SMILES | pIC50
17 | Cc1ccc(O)c(C)c1-c1cnc2[nH]c(-c3cnc(NC4CC4)nc3)cc2c1C#N [Example 47, (R)-2-(2-(cyclopropylamino)pyrimidin-5-yl)-5-(3-hydroxy-2,6-dimethylphenyl)-1H-pyrrolo[2,3-b]pyridine-4-carbonitrile] | > 8.00
18 | Cc1ccc(O)c(C)c1-c1cnc2[nH]c(-c3cnc(NC4CC4)nc3)c(Cl)c2c1C#N [Example 48, (R)-3-chloro-2-(2-(cyclopropylamino)pyrimidin-5-yl)-5-(3-hydroxy-2,6-dimethylphenyl)-1H-pyrrolo[2,3-b]pyridine-4-carbonitrile] | > 8.00
19 | Cc1ccc(O)c(C)c1-c1cnc2[nH]c(-c3cnc(N4CCC4)nc3)cc2c1C#N [Example 49, (R)-2-(2-(azetidin-1-yl)pyrimidin-5-y1)-5-(3-hydroxy-2,6-dimethylphenyl)-1H-pyrrolo[2,3-b]pyridine-4-carbonitrile] | > 8.00
20 | Cc1ccc(O)c(C)c1-c1cnc2[nH]c(-c3cnc(N(C)C)nc3)c(Cl)c2c1C#N [Example 50, (S)-3-chloro-2-(2-(dimethylamino)pyrimidin-5-yl)-5-(3-hydroxy-2,6-dimethylphenyl)-1H-pyrrolo[2,3-b]pyridine-4-carbonitrile] | > 8.00
21 | Cc1ccc(O)c(C)c1-c1cnc2[nH]c(-c3cnc(O)nc3)cc2c1C#N [Example 52, (R)-5-(3-hydroxy-2,6-dimethylphenyl)-2-(2-hydroxypyrimidin-5-yl)-1H-pyrrolo[2,3-b]pyridine-4-carbonitrile] | > 8.00
22 | Cc1ccc(O)c(C)c1-c1cnc2[nH]c(-c3cnc(OC4COC4)nc3)cc2c1C#N [Example 53, (S)-5-(3-hydroxy-2,6-dimethylphenyl)-2-(2-(oxetan-3-yloxy)pyrimidin-5-yl)-1H-pyrrolo[2,3-b]pyridine-4-carbonitrile] | > 8.00
23 | Cc1ccc(O)c(C)c1-c1cnc2[nH]c(-c3cnc(C(F)F)nc3)c(Cl)c2c1C#N [Example 54, (S)-3-chloro-2-(2-(difluoromethyl)pyrimidin-5-yl)-5-(3-hydroxy-2,6-dimethylphenyl)-1H-pyrrolo[2,3-b]pyridine-4-carbonitrile] | > 8.00
24 | Cc1ccc(O)c(C)c1-c1cnc2[nH]c(-c3cnc(C(F)(F)F)nc3)cc2c1C#N [Example 55, 5-(3-hydroxy-2,6-dimethylphenyl)-2-(2-(trifluoromethyl)pyrimidin-5-yl)-1H-pyrrolo[2,3-b]pyridine-4-carbonitrile] | > 8.00
25 | Cc1ccc(O)c(C)c1-c1cnc2[nH]c(-c3cnc(C4CC4)nc3)cc2c1C#N [Example 56, (S)-2-(2-cyclopropylpyrimidin-5-yl)-5-(3-hydroxy-2,6-dimethylphenyl)-1H-pyrrolo[2,3-b]pyridine-4-carbonitrile] | > 8.00
26 | Cc1ccc(O)c(C)c1-c1cnc2[nH]c(-c3cnc(C4CC4)nc3)c(Cl)c2c1C#N [Example 57, (S)-3-chloro-2-(2-cyclopropylpyrimidin-5-yl)-5-(3-hydroxy-2,6-dimethylphenyl)-1H-pyrrolo[2,3-b]pyridine-4-carbonitrile] | > 8.00
27 | Cc1ccc(O)c(C)c1-c1cnc2[nH]c(-c3cnc(CO)nc3)cc2c1C#N [Example 58, (S)-5-(3-hydroxy-2,6-dimethylphenyl)-2-(2-(hydroxymethyl)pyrimidin-5-yl)-1H-pyrrolo[2,3-b]pyridine-4-carbonitrile] | > 8.00
28 | Cc1ncc(-c2cc3c(C#N)c(-c4c(C)ccc(O)c4C)cnc3[nH]2)s1 [Example 59, (R)-5-(3-hydroxy-2,6-dimethylphenyl)-2-(2-methylthiazol-5-yl)-1H-pyrrolo[2,3-b]pyridine-4-carbonitrile] | > 8.00
29 | Cc1ncc(-c2[nH]c3ncc(-c4c(C)ccc(O)c4C)c(C#N)c3c2Cl)s1 [Example 60, (R)-3-chloro-5-(3-hydroxy-2,6-dimethylphenyl)-2-(2-methylthiazol-5-yl)-1H-pyrrolo[2,3-b]pyridine-4-carbonitrile] | > 8.00
30 | Cc1ccc(O)c(C)c1-c1cnc2[nH]c(-c3cnc4[nH]cnc4c3)cc2c1C#N [Example 63, (R)-5-(3-hydroxy-2,6-dimethylphenyl)-2-(3H-imidazo[4,5-b]pyridin-6-y1)-1H-pyrrolo[2,3-b]pyridine-4-carbonitrile] | > 8.00
31 | Cc1ccc(O)c(C)c1-c1cnc2[nH]c(-c3cnc(C)c(=O)[nH]3)c(Cl)c2c1C#N [Example 64, 3-chloro-5-(3-hydroxy-2,6-dimethylphenyl)-2-(5-methyl-6-oxo-1,6-dihydropyrazin-2-yl)-1H-pyrrolo[2,3-b]pyridine-4-carbonitrile] | 7.30 to 8.00
32 | Cc1ccc(O)c(C)c1-c1cnc2[nH]c(-c3cnn(C)c(=O)c3)cc2c1C#N [Example 65, 5-(3-hydroxy-2,6-dimethylphenyl)-2-(1-methyl-6-oxo-1,6-dihydropyridazin-4-yl)-1H-pyrrolo[2,3-b]pyridine-4-carbonitrile] | > 8.00
